The source of these data is patent US20100184802A1, “Bicycloheteroaryl Compounds as P2X7 Modulators and Uses Thereof” (priority 2006, published 2010).

A value given as a limit tells only on which side of the number the result lay.

For the assay, the target named is T1, P2X7 receptor (IL-1β release from THP-1 cells) (Homo sapiens, UniProt Q99572).
T1 construct: host or cells: THP-1 cells differentiated with LPS and IFN-γ
T1 sequence (Q99572 1-595): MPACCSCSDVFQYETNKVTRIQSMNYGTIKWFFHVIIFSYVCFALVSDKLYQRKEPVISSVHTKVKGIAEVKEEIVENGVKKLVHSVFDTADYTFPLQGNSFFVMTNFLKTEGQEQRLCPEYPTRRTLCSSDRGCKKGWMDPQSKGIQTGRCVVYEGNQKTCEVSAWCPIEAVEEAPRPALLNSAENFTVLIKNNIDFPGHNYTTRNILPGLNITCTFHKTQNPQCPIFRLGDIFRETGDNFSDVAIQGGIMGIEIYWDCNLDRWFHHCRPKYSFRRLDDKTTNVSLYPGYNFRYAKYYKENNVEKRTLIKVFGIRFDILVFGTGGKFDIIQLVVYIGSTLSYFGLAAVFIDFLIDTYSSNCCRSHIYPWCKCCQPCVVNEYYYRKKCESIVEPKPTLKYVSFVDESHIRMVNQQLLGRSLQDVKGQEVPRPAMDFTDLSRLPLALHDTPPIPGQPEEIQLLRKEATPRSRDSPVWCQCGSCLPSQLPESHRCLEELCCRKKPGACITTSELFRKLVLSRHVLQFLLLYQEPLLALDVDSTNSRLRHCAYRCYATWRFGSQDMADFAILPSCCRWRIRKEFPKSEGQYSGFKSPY
Briefly: IL-1β release assay in differentiated THP-1 cells stimulated with BzATP (Example 9). Format: cell-based. The note with it: for inhibition at 0.3 µM: 0.3 μM concentration; for inhibition at 0.3 µM / inhibition at 0.1 µM: BzATP 250 uM, read-out: IL-1β % Inhib. @ 0.3 or 0.1 μM; for IC50: released IL-1β as in Example 9, four parameter logistic fit; for inhibition at 0.1 µM: 0.1 μM concentration. The procedure:
The cells are then pretreated for 30 minutes with the compound of interest at the appropriate concentration in RPMI media containing 100 IU/mL penicillin, 100 ug/mL streptomycin. […] 30 uL of cell supernatant is then collected and IL-1β levels determined via ELISA (R&D systems Cat. #HSLB50) according to manufacturer's recommendations using the Tecan Safire plate reader. Background adjusted IL-1β levels of drug treated and non-treated cells are used to calculate the percent inhibition.
The compounds set forth in Table 1 were tested for activity in a cellular model as described herein. […] Measurements were made and IC50 values, presented in Table 2, below, were determined by fitting the data to a four parameter logistic equation using GraphPad Prism software (GraphPad Software, Inc). The equation may be expressed by the following formula:
Y=Bottom+(Top−Bottom)/(1+10̂((Log EC50−X)*HillSlope))
Where X is the logarithm of concentration, Y is the response and Y starts at Bottom and goes to Top with a sigmoid shape.

Turning to `O=C(CC1CCCCCC1)Nc1cccc2c(=O)n(C(CO)CO)ccc12` [Compound 560, 2-Cycloheptyl-N-[2-(2-hydroxy-1-hydroxymethyl-ethyl)-1-oxo-1,2-dihydro-isoquinolin-5-yl]-acetamide], the inhibition at 0.3 µM is above 76% and the IC50 was determined as 75.6 nM.
With `NC(=O)Cn1ccc2c(NC(=O)CC3CCCCCC3)cccc2c1=O` [Compound 561, 2-(5-(2-Cycloheptyl-acetylamino)-1-oxo-1H-isoquinolin-2-yl)-acetamide], the inhibition at 0.3 µM was above 76% and the IC50 is 38.2 nM.
In the case of `NC(=O)Cn1ccc2c(NC(=O)CC3(O)CCCCCC3)cccc2c1=O` [Compound 562], the inhibition at 0.3 µM fell in the range of 26 to 50% and the IC50 worked out at 427 nM.
Take `CC(O)Cn1ccc2c(NC(=O)[C@H]3CC[C@H](C)CC3)cccc2c1=O` (some centres unmarked) [Compound 563]: the inhibition at 0.1 µM lay within 0 to 25%.
On the same count and under the same terms, the figure for `CC(O)Cn1ccc2c(NC(=O)CC3C[C@@H]4CC[C@H]3C4)cccc2c1=O` (some centres unmarked) [Compound 564] is 51 to 75%.
Turning to `CC(O)Cn1ccc2c(NC(=O)C34C[C@@H]5C[C@@H](C[C@@H]3C5)C4)cccc2c1=O` (some centres unmarked) [Compound 566], the inhibition at 0.1 µM lay in the range of 0 to 25%.
In the case of `CC(O)Cn1ccc2c(NC(=O)C3C[C@@H]4CC[C@H]3C4)cccc2c1=O` (some centres unmarked) [Compound 567], the inhibition at 0.1 µM lay within 26 to 50%.
The same measure, in the same setting: the result for `CC(C)(O)Cn1ccc2c(NC(=O)[C@H]3CC[C@H](C)CC3)cccc2c1=O` [Compound 568] reads 0 to 25%; that for `CC(C)(O)Cn1ccc2c(NC(=O)CC3C[C@@H]4CC[C@H]3C4)cccc2c1=O` (some centres unmarked) [Compound 569], 26 to 50%; that for `CC(C)(O)Cn1ccc2c(NC(=O)[C@@]34C[C@@H]5C[C@@H](C[C@@H]3C5)C4)cccc2c1=O` [Compound 570], 0 to 25%.
On the same count and under the same terms, the result for `CC(C)(O)Cn1ccc2c(NC(=O)C3C[C@@H]4CC[C@H]3C4)cccc2c1=O` (some centres unmarked) [Compound 571] reads 26 to 50%.
On to `CC1(C)CC(C)(C)CC(O)(CC(=O)Nc2cccc3c(=O)n(C(CO)CO)ccc23)C1` [Compound 573], for which the inhibition at 0.3 µM was above 76% and the IC50 was determined as 81.3 nM.
On the same counts, the results for `C[C@@H](C(N)=O)n1ccc2c(NC(=O)CC34CC5CC(CC(O)(C5)C3)C4)cccc2c1=O` [Compound 574] are 0 to 25% and above 1000 nM.
On the same counts, the results for `NC(=O)[C@H](CO)n1ccc2c(NC(=O)CC3CCCCCC3)cccc2c1=O` [Compound 575, (S)-2-[5-(2-Cycloheptyl-acetylamino)-1-oxo-1H-isoquinolin-2-yl]-3-hydroxy-propionamide] are above 76% and 40.8 nM.
`O=C(CC1CCCCCC1)Nc1cccc2c(=O)n(C[C@H]3CCCN3)ccc12` [Compound 576]: the inhibition at 0.3 µM is above 76%.
For `O=C(CC1CCCCCC1)Nc1cccc2c(=O)n(C[C@@H]3CCCN3)ccc12` [Compound 577], the inhibition at 0.3 µM was above 76%.
As for `O=C(CC1(O)CCCCCC1)Nc1cccc2c(=O)n(C[C@H]3CCCN3)ccc12` [Compound 578, 2-(1-Hydroxy-cycloheptyl)-N-(1-oxo-2-(R)-1-pyrrolidin-2-ylmethyl-1,2-dihydro-isoquinolin-5-yl)-acetamide], the inhibition at 0.3 µM was above 76% and the IC50 was 111 nM.
As for `C[C@H](C(N)=O)n1ccc2c(NC(=O)CC34CC5CC(CC(O)(C5)C3)C4)cccc2c1=O` [Compound 581], the inhibition at 0.3 µM is above 76% and the concentration for half-maximal inhibition (IC50) came out at 48.2 nM.
For the compound `CC1(C)CC(CC(=O)Nc2cccc3c(=O)n(CCO)ccc23)CC(C)(C)C1` [Compound 584, N-[2-(2-Hydroxy-ethyl)-1-oxo-1,2-dihydro-isoquinolin-5-yl]-2-(3,3,5,5-tetramethylcyclohexyl)-acetamide], the inhibition at 0.3 µM is above 76% and the IC50 is 1.8 nM.
For the compound `CC(C)C[C@H](CO)n1ccc2c(NC(=O)CC34CC5CC(CC(C5)C3)C4)cccc2c1=O` [Compound 585, 2-Adamantan-1-yl-N-[2-((R)-1-hydroxymethyl-3-methyl-butyl)-1-oxo-1,2-dihydro-isoquinolin-5-yl]-acetamide], the inhibition at 0.3 µM was above 76% and the IC50 was 1.38 nM.
On to `C[C@H](C(N)=O)n1ccc2c(NC(=O)CC3CC(C)(C)CC(C)(C)C3)cccc2c1=O` [Compound 588], for which the inhibition at 0.3 µM is above 76% and the IC50 turned out to be 0.929 nM.
On the same counts, the results for `CC(C)C[C@H](CO)n1ccc2c(NC(=O)CC3CCCCCC3)cccc2c1=O` [Compound 590] are above 76% and 8.3 nM.
On to `CC(C)[C@H](CO)n1ccc2c(NC(=O)CC3CCCCCC3)cccc2c1=O` [Compound 591, 2-Cycloheptyl-N-[2-((R)-1-hydroxymethyl-2-methyl-propyl)-1-oxo-1,2-dihydro-isoquinolin-5-yl]-acetamide], for which the inhibition at 0.3 µM is above 76% and the IC50 was 3.42 nM.
On the same counts, the results for `CNC(=O)[C@@H](C(C)C)n1ccc2c(NC(=O)CC34CC5CC(CC(C5)C3)C4)cccc2c1=O` [Compound 592, (R)-2-[5-(2-Adamantan-1-yl-acetylamino)-1-oxo-1H-isoquinolin-2-yl]-3,N-dimethyl-butyramide] are above 76% and 1.21 nM.
With `CC1(C)CC(CC(=O)Nc2cccc3c(=O)n([C@@H](C(N)=O)c4ccccc4)ccc23)CC(C)(C)C1` [Compound 593, (R)-2-{1-Oxo-5-[2-(3,3,5,5-tetramethylcyclohexyl)-acetylamino]-1H-isoquinolin-2-yl}-2-phenyl-acetamide], the inhibition at 0.3 µM was above 76% and the IC50 came to 4.09 nM.
On the same counts, the results for `CC(C)[C@H](C(=O)NC1CC1)n1ccc2c(NC(=O)CC34CC5CC(CC(C5)C3)C4)cccc2c1=O` [Compound 594] are 26 to 50% and 303 nM.
In the case of `CC(C)[C@H](C(=O)NC1CC1)n1ccc2c(NC(=O)CC3CCCCCC3)cccc2c1=O` [Compound 595, (R)-2-[5-(2-Cycloheptyl-acetylamino)-1-oxo-1H-isoquinolin-2-yl]-N-cyclopropyl-3-methyl-butyramide], the inhibition at 0.3 µM was above 76% and the IC50 was 20.7 nM.
As to `CC(C)C[C@H](CO)n1ccc2c(NC(=O)CC3(O)CCCCCC3)cccc2c1=O` [Compound 596], the inhibition at 0.3 µM was above 76% and the IC50 worked out at 5.59 nM.
On the same counts, the results for `CC(C)[C@H](C(N)=O)n1ccc2c(NC(=O)CC3CCCCCC3)cccc2c1=O` [Compound 597, (R)-2-[5-(2-Cycloheptyl-acetylamino)-1-oxo-1H-isoquinolin-2-yl]-3-methyl-butyramide] are above 76% and 2.38 nM.
As to `C[C@H](C(=O)NC1CC1)n1ccc2c(NC(=O)CC34CC5CC(CC(C5)C3)C4)cccc2c1=O` [Compound 598, (R)-2-[5-(2-Adamantan-1-yl-acetyl-amino)-1-oxo-1H-isoquinolin-2-yl]-N-cyclopropyl-propionamide], the inhibition at 0.3 µM is above 76% and the IC50 was determined as 0.698 nM.
On the same counts, the results for `CC(C)[C@H](C(=O)O)n1ccc2c(NC(=O)CC34CC5CC(CC(C5)C3)C4)cccc2c1=O` [Compound 603] are above 76% and 22 nM.
In the case of `C[C@@H](CO)n1ccc2c(NC(=O)CC3CCCCCC3)cccc2c1=O` [Compound 605, 2-Cycloheptyl-N-[2-((S)-2-hydroxy-1-methyl-ethyl)-1-oxo-1,2-dihydro-isoquinolin-5-yl]-acetamide], the inhibition at 0.3 µM is above 76% and the IC50 turned out to be 66.5 nM.
On to `C[C@H](C(=O)O)n1ccc2c(NC(=O)CC3CCCCCC3)cccc2c1=O` [Compound 607, (R)-2-[5-(2-Cycloheptyl-acetylamino)-1-oxo-1H-isoquinolin-2-yl]-propionic acid], for which the inhibition at 0.3 µM is above 76% and the IC50 was found to be 92.1 nM.
On the same counts, the results for `C[C@H](C(N)=O)n1ccc2c(NC(=O)[C@H](C)C3CCCCCC3)cccc2c1=O` [Compound 608] are above 76% and 70.8 nM.
For `C[C@H](C(=O)Nc1cccc2c(=O)n([C@H](C)C(N)=O)ccc12)C1CCCCCC1` [Compound 609], the inhibition at 0.3 µM was above 76% and the IC50 worked out at 6.16 nM.
On the same counts, the results for `CC(C)[C@H](C(=O)O)n1ccc2c(NC(=O)CC3CCCCCC3)cccc2c1=O` [Compound 610] are above 76% and 44.7 nM.

The term IC50 denotes the midpoint of a concentration-inhibition curve.
